US20150011471A1, “REGENERATION OF ISLET BETA CELLS BY HSP60 DERIVED PEPTIDES” (Yeda Research and Development Co. Ltd., priority 2012, published 2015)
Where two headings read alike, the source gives them in different places. Where no end group is shown, it is not given here.

Key:
advanced T1D in NOD mice = system: advanced T1D in NOD mice
Text: Female non-obese diabetic (NOD) mice, which spontaneously develop autoimmune diabetes that mimics human T1D, are used to test the ability of the Hsp60 peptides and peptide analogs to induce regeneration of pancreatic beta cells. The NOD model is described, for example in Elias and Cohen (Lancet 1994, 343, 704-706). Female NOD mice raised under specific pathogen free (SPF) conditions develop insulitis around 4 weeks of age. […] In addition, the actual appearance of new beta cells, detected by increased C-peptide levels is measured in the revised protocol and not just preservation of initial C-peptide levels as in the original protocol.
Groups of 7 weeks old NOD/ShiLtJ mice (Jackson Number 001976, 10 mice per group) were used. Fasting blood glucose was monitored three times per week during all the treatment period, using methods known in the art. After about 12-20 weeks, when blood glucose reaches a level of […] the mice are treated with insulin in order to keep them alive and divided randomly between the following group treatments: • 1. no treatment; • 2. […]® only, once a week; • 3.
Fasting glucose was measured Hemoglobin A1C and C-peptide levels were measured at the end of treatment, up to six months, depending on the conditions of the control and treated animals.
Histology was performed to detect and count beta cells in pancreatic islets and to observe islet infiltrates. Histology was performed by staining for insulin and detection of appearance of beta cells, as described for example in Lumelsky et al, Science 2001, 292, 1389-1394.

NOD mice = details: subcutaneous administration; cited from earlier work

VLGGGVALLRVIPALDSLTPANED [DiaPep277]
Islets per whole section (advanced T1D in NOD mice; 100 μg in INTRALIPID, SC, 1 injection/week): 3 | Islets per whole section (advanced T1D in NOD mice; 100 μg in PBS, IP, 3 injections/week): 2 | Islets per whole section (advanced T1D in NOD mice; 200 μg in INTRALIPID, SC, 1 injection/week): 1 | Lymphocyte infiltrates compared to control mice treated with placebo (advanced T1D in NOD mice; treated mice overall, Table 1): less lymphocyte infiltrates | Number of beta islets compared to control mice treated with placebo (advanced T1D in NOD mice; treated mice overall, Table 1): increased number of beta islets

p277: specific peptide of human Hsp60, one of the immunodominant epitopes in autoimmune diabetes; native cysteines at positions 6 and 11 (VLGGGCALLRCIPALDSLTPANED; UniProt P10809 437-460, looked up, fragment)
Development of diabetes in NOD mice (NOD mice): prevented the development of diabetes | T-cell reactivity to beta cell antigens (NOD mice): down-regulated
